Source: patent publication US20060088820A1 (priority 1999, published 2006)

Legend:
[1] = system: blood mononucleated cells from healthy donor
[2] = system: blood mononucleated cells from healthy donor inoculated with MS virion fraction; assay type: cell-based, human

Row | Compound | cell mortality (toxicity tests, compound alone) [1] | Vβ16 expansion of the lymphocytes (FACS analysis of T subpopulations) [2]
1 | Cc1cn([C@H]2C[C@H](N=[N+]=[N-])[C@@H](CO)O2)c(=O)[nH]c1=O [AZT, azidodeoxythymidine] | no significant cell mortality | an absence or an inhibition of Vβ16 expansion
2 | O=c1[nH]cnc2c1ncn2[C@H]1CC[C@@H](CO)O1 [DDI, dideoxyinosine] | – | an absence of Vβ16 expansion
